Measurements: patent EP1129097B1, “NOVEL TYPE CONDENSED PYRIDAZINONE COMPOUNDS” (GYOGYSZERKUTATO INTEZET KFT., priority 1998, dated 2000)

Key:
[1] = system: scopolamine-induced memory-deficit in rats; test: passive avoidance test, counter-balancing scopolamine-induced memory-deficit; assay type: in vivo; details: oral doses of 50 mg/kg
Experimental: The memory-enhancing effect of the compounds according to the invention was measured by counter-balancing the scopolamine-induced memory-deficit in rats, with oral doses of 50 mg/kg, in the passive avoidance test published by Cumin, R. et al. [Psychopharmacology, 78, 104 (1982)].

AMPA = test: AMPA-induced spreading depression of chick retina; details: concentration of 20 µM
Experimental: The AMPA antagonistic effect of the compounds was also tested on spreading depression of chick retina (Sheardown, M. J.: Brain Res., 1993, 607, 189) in a concentration of 20 µM.

Row | SMILES | Memory improvement compared to amnesic control (%) [1] [%] | Antagonistic effect on AMPA-induced spreading depression (%) (AMPA)
1 | Cn1ncc2c(c1=O)SCCNC2C(=O)c1ccccc1 (stereo not shown) [Example 3, 5-Benzoyl-8-methyl-2,3,4,5-tetrahydro-9(8H)-pyridazino[4,5-b][1,5]thiazepinone] | 100 | 10
2 | O=c1c2c(cnn1CC=Cc1ccccc1)N(Cc1ccccc1)CCCO2 [Example 7, 5-Benzyl-8-cynnamyl-2,3,4,5-tetrahydro-9(8H)-pyridazino[4,5-b] [1,5]oxazepinone] | 250 | 16
